From ChEMBL document CHEMBL1148297, “Synthesis and biological evaluation of analogues of 7-chloro-4,5-dihydro-4- oxo-8-(1,2,4-triazol-4-yl)-1,2,4-triazolo[1,5-a]quinoxaline-2-carboxylic acid (TQX-173) as novel selective AMPA receptor antagonists” (J Med Chem, 2004)

Experiments:
[1] = target: Glutamate receptor ionotropic, NMDA 1 (Rattus norvegicus, UniProt P35439); assay: Binding affinity towards N-methyl-D-aspartate glutamate receptor 1 (high affinity) of rat cortical synaptic membranes by using [3H]Gly as radioligand
[2] = target: Glutamate receptor ionotropic, kainate; assay: Inhibition concentration towards high-affinity ionotropic glutamate receptor kainate of rat cortical membranes by using [3H]KA as radioligand
[3] = species: Mus musculus; assay: Concentration necessary for 50% inhibition of depolarization induced by 5 uM S-AMPA in mouse cortical wedge preparation; format: functional
[4] = target: Glutamate receptor ionotropic, AMPA (Rattus norvegicus, UniProt P19490+P19491+P19492+P19493)
Description: Binding affinity towards ionotropic glutamate receptor (high-affinity) of rat cortical synaptic membranes by using [3H]AMPA as radioligand

[5] = species: Mus musculus; assay: Concentration necessary for 50% inhibition of depolarization induced by 5 uM NMDA in mouse cortical wedge preparation; format: functional
[6] = target: Glutamate receptor ionotropic, NMDA 1 (Rattus norvegicus) (UniProt P35439); assay: Percent inhibition of compound at 100 uM towards N-methyl-D-aspartate glutamate receptor 1 (high affinity) of rat cortical synaptic membranes by using [3H]-Gly as radioligand; format: cell membranes; conditions: Membrane
[7] = target: Glutamate receptor ionotropic, kainate (Rattus norvegicus) (UniProt P22756+Q01812+P42260+P42264+Q63273); assay: Percent inhibition of compound at 100 uM towards high-affinity Ionotropic glutamate receptor kainate of rat cortical membranes by using [3H]KA as radioligand; format: cell membranes; conditions: Membrane
[8] = species: Rattus norvegicus; assay: Concentration that inhibits 50% S-AMPA stimulated (50 uM) [3H]norepinephrine release from rat hippocampal synaptosomes; format: functional; conditions: Hippocampus
[9] = target: Glutamate receptor ionotropic, kainate; assay: Inhibition concentration towards low-affinity Ionotropic glutamate receptor kainate of rat cortical membranes by using [3H]-KA as radioligand
[10] = species: Rattus norvegicus; assay: Concentration giving 50% inhibition of stimulated [3H](+)-MK-801 binding in rat cortical membranes incubated with 10 uM glutamate and 0.1 uM glycine
[11] = Ratio of IC50 of KA low-affinity receptor site to KA high-affinity receptor site

SMILES	Ki [1]	IC50 [2]	Ki [4]	also measured
CCOC(=O)c1nc2c(O)nc3cc(C(F)(F)F)c(-n4ccc(C=O)c4)cc3n2n1	71 µM	31.2 µM	0.37 µM	IC50 [3]: 7.8 µM; IC50 [5]: Not Active
CCOC(=O)c1nc2c(O)nc3cc([N+](=O)[O-])c(-n4ccc(C=O)c4)cc3n2n1	–	44.4 µM	0.65 µM	inhibition [6]: 28%
CCOC(=O)c1nc2c(O)nc3cc(C(F)(F)F)c(N)cc3n2n1	–	–	–	inhibition [7]: 45%
NS(=O)(=O)c1cccc2c1c([N+](=O)[O-])cc1nc(O)c(O)nc12 [NBQX]	–	–	–	IC50 [8]: 4 µM; IC50 [5]: Not Active
CCOC(=O)c1nc2c(O)nc3cc([N+](=O)[O-])c(N)cc3n2n1	3.7 µM	69 µM	1.2 µM	–
O=C(O)c1nc2c(O)nc3cc(C(F)(F)F)c(-n4ccnc4)cc3n2n1	34 µM	13 µM	0.12 µM	–
O=C(O)c1cc(O)c2c(Cl)cc(Cl)cc2n1	0.09 µM	–	–	–
O=C(O)c1ccn(-c2cc3c(cc2C(F)(F)F)[nH]c(=O)c2nc(C(=O)O)nn23)c1	35 µM	5.4 µM	0.037 µM	IC50 [9]: 2.6 µM
CCOC(=O)c1nc2c(=O)[nH]c3cc(C(F)(F)F)c(N)cc3n2n1	5.5 µM	–	5.5 µM	–
CCOC(=O)c1nc2c(O)nc3cc(C(F)(F)F)c(-n4ccc(C(=O)O)c4)cc3n2n1	–	12.9 µM	0.35 µM	inhibition [6]: 33%
CCOC(=O)c1nc2c(O)nc3cc(C(F)(F)F)c(-n4ccnc4)cc3n2n1	54 µM	71 µM	0.35 µM	–
CCOC(=O)c1nc2c(=O)[nH]c3cc(C(F)(F)F)c([N+](=O)[O-])cc3n2n1	62 µM	–	9 µM	–
CCOC(=O)c1nc2c(O)nc3cc([N+](=O)[O-])c(-n4ccc(C(=O)O)c4)cc3n2n1	–	–	0.068 µM	inhibition [6]: 16%
CCOC(=O)c1nc2c(O)nc3cc(C(F)(F)F)c(-n4cccc4)cc3n2n1	75 µM	–	2.2 µM	inhibition [7]: 5%
O=C(O)c1nc2c(O)nc3cc(C(F)(F)F)c(-n4cccc4)cc3n2n1	8.3 µM	18.1 µM	0.28 µM	IC50 [8]: 11 µM; IC50 [10]: 12.7 µM; IC50 [3]: 1.5 µM; IC50 ([5]; Mus musculus, read-out: IC50): 80 µM
O=Cc1ccn(-c2cc3c(cc2C(F)(F)F)[nH]c(=O)c2nc(C(=O)O)nn23)c1	2.6 µM	5.6 µM	0.12 µM	IC50 [9]: 1 µM
CCOC(=O)c1nc2c(O)nc3cc(C(F)(F)F)c(-n4cnnc4)cc3n2n1	–	92 µM	0.2 µM	inhibition [6]: 42%; IC50 [3]: 12 µM; IC50 ([5]; Mus musculus, read-out: IC50): > 150 µM
CCOC(=O)c1nc2c(=O)[nH]c3cc([N+](=O)[O-])c(NC(C)=O)cc3n2n1	85 µM	41 µM	6.5 µM	–

SMILES	Ki [1]	IC50 [2]	Ki [4]	also measured
CC(=O)Nc1cc2c(cc1[N+](=O)[O-])nc(O)c1nc(C(=O)O)nn12	63 µM	22.2 µM	1.14 µM	–
O=C(O)c1nc2c(=O)[nH]c3cc(C(F)(F)F)c(-n4cnnc4)cc3n2n1	3.6 µM	9.6 µM	0.095 µM	IC50 [9]: 1.8 µM
O=C(O)c1nc2c(O)nc3cc([N+](=O)[O-])c(-n4cccc4)cc3n2n1	–	–	–	IC50 [8]: 19 µM; Ratio [11]: 0.33; IC50 [3]: 1 µM; IC50 ([5]; Mus musculus, read-out: IC50): 50 µM
O=C(O)c1nc2c(=O)[nH]c3cc(C(F)(F)F)c([N+](=O)[O-])cc3n2n1	4.4 µM	43 µM	2.35 µM	–
CCOC(=O)c1nc2c(=O)[nH]c3cc([N+](=O)[O-])c(-n4cccc4)cc3n2n1	84 µM	41 µM	1.4 µM	–
O=C(O)c1ccn(-c2cc3c(cc2C(F)(F)F)nc(O)c2nc(C(=O)O)nn23)c1	–	–	–	IC50 [8]: 7.5 µM; Ratio [11]: 0.48; IC50 [3]: 1.3 µM; IC50 ([5]; Mus musculus, read-out: IC50): 60 µM
Nc1cc2c(cc1C(F)(F)F)nc(O)c1nc(C(=O)O)nn12	1.5 µM	24 µM	1.2 µM	–
CCOC(=O)c1nc2c(O)nc3cc(C(F)(F)F)c([N+](=O)[O-])cc3n2n1	–	–	–	inhibition [7]: 24%
CCOC(=O)c1nc2c(=O)[nH]c3cc(C(F)(F)F)c(N4C(=O)C=C(C=O)C4=O)cc3n2n1	10.9 µM	42 µM	12.8 µM	–
O=C(O)c1ccn(-c2cc3c(cc2[N+](=O)[O-])nc(O)c2nc(C(=O)O)nn23)c1	–	17 µM	0.019 µM	inhibition [6]: 7%
CCOC(=O)c1nc2c(O)nc3cc(Cl)c(-n4cnnc4)cc3n2n1	–	–	–	inhibition [6]: 15%
O=Cc1ccn(-c2cc3c(cc2C(F)(F)F)nc(O)c2nc(C(=O)O)nn23)c1	–	–	–	IC50 [8]: 8.1 µM; IC50 [10]: 11 µM; Ratio [11]: 0.18; IC50 [3]: 1 µM; IC50 ([5]; Mus musculus, read-out: IC50): 50 µM
O=C(O)c1nc2c(O)nc3cc(C(F)(F)F)c(-n4cnnc4)cc3n2n1	–	–	–	IC50 [8]: 5.8 µM; Ratio [11]: 0.19; IC50 [3]: 0.8 µM; IC50 ([5]; Mus musculus, read-out: IC50): 60 µM
O=C(O)c1nc2c(=O)[nH]c3cc([N+](=O)[O-])c(-n4cccc4)cc3n2n1	65 µM	5.1 µM	0.088 µM	IC50 [9]: 1.7 µM
O=Cc1ccn(-c2cc3c(cc2[N+](=O)[O-])nc(O)c2nc(C(=O)O)nn23)c1	–	8.2 µM	0.18 µM	IC50 [8]: 12 µM; IC50 [9]: 1.2 µM; inhibition [6]: 43%; Ratio [11]: 0.15; IC50 [3]: 3.1 µM; IC50 ([5]; Mus musculus, read-out: IC50): 52 µM
O=C(O)c1nc2c(=O)[nH]c3cc(Cl)c(-n4cnnc4)cc3n2n1 [TQX-173]	–	11.3 µM	–	IC50 [8]: 28 µM; IC50 [10]: 68 µM
Nc1cc2c(cc1[N+](=O)[O-])[nH]c(=O)c1nc(C(=O)O)nn12	2.7 µM	20 µM	0.7 µM	–
